Experimental data reported in patent EP0263968A2, “Use of opiate antagonists in the manufacture of agents for the diagnosis and therapy of hypothalamic function disorders” (Ferring Arzneimittel GmbH, priority 1986, dated 1988).

Tests used:
[1] = test system: Patientinnen mit hypothalamischer Amenorrhoe; experiment: Continuous naloxone infusion in patients with hypothalamic amenorrhoea; assay type: in vivo; details: duration 6 to 52 hours
From the text: Im Rahmen der vorliegenden Erfindung wurden Untersuchungen an Patientinnen mit hypothalamischer Amenorrhoe durchgeführt. Diese Untersuchungen haben überraschenderweise gezeigt, daß durch die Gabe von Opiat-Antagonisten eine Zunahme von Frequenz und Amplitude der LH und FSH Sekretion erreicht wird. Es kann daher davon ausgegangen werden, daß die endogene GnRH Sekretion durch Opiat-Antagonisten vermehrt wird.
Beispielsweise wurde Naloxon bei Patientinnen mit hypothalamischer Amenorrhoe infundiert. Die Infusionsdauer betrug 6 bis 52 Stunden.

Gonadotropine = experiment: Diagnostic test: intravenous naloxone in secondary and primary amenorrhoea; assay type: in vivo
From the text: Somit zeigt dieser diagnostische Test, daß bei den Fällen von sekundärer Amenorrhoe die Suppression der Gonadotropine im Serum auf einer erhöhten endogenen Opiataktivität beruht, die therapeutisch durch den längerfristigen Einsatz von Antagonisten gedämpft werden kann.

[2] = test system: Patientinnen mit hypothalamischer Amenorrhoe; experiment: Oral naltrexone treatment of patients with hypothalamic amenorrhoea (serial blood sampling, ultrasound); assay type: in vivo
Experimental: Die basale Gonadotropin Sekretion von Patientinnen, die an hypothalamischer Amenorrhoe litten, wurde durch Bestimmung von LH und FSH, Prolactin und Ovarien-Steroiden in Blutproben bewertet, die alle zehn Minuten während 24 Stunden entnommen wurden. Naltrexon wurde dann in einer Dosis von 50 mg pro Tag während 24 oder 28 Tagen verabreicht. 5 Tage und 14 Tage nach dem Beginn der Naltrexonverabreichung wurden wiederholte Blutproben entnommen. An den übrigen Tagen wurden täglich Blutproben entnommen und es wurde eine Ultraschalluntersuchung nach der Naltrexonverabreichung sowie einige Tage danach durchgeführt. Es wurden folgende Ergebnisse ermittelt:
Auf die Verabreichung von Naltrexon folgte eine Zunahme der Frequenz und der Amplitude der pulsatielen Gonadotropin Sekretion sowie eine Zunahme der mittleren LH und FSH Serumkonzentration sowie der Entwicklung der Gonaden-Steroid Sekretion und der Follikel, was durch Ultraschall festgestellt wurde.

[3] = test system: Patientinnen mit normalem Zyklus; experiment: Naltrexone administration to patients with normal cycle; assay type: in vivo
From the text: Es ergibt sich daher die Möglichkeit, Opiat-Antagonisten zur Diagnose und Therapie hypothalamischer Funktionsstörungen einzusetzen, insbesondere bei solchen, bei denen zu vermuten ist, daß eine Hemmung der entsprechenden Partialfunktion durch vermehrt gebildete Endorphine verursacht ist.

[4] = oral administration possible; cited from earlier work
[5] = 50 mg per day for 24 or 28 days
[6] = patients with hypothalamic amenorrhoea

Row | SMILES | Frequenz und Amplitude der LH und FSH Sekretion [1] | Anstieg der Gonadotropine (Gonadotropine; some cases of primary amenorrhoea) | Anstieg der Gonadotropine (Gonadotropine; some cases of secondary amenorrhoea) | Frequenz und Amplitude der pulsatielen Gonadotropin Sekretion [2, 5] | mittlere LH und FSH Serumkonzentration [2, 5] | Patientinnen, die ovulierten ([2]; 50 mg per day for 24 or 28 days, 3 patients) | Menstruation nach Absetzen des Mittels ([2]; 50 mg per day for 24 or 28 days, after withdrawal) | Entwicklung der Gonaden-Steroid Sekretion und der Follikel ([2]; 50 mg per day for 24 or 28 days, follicles by ultrasound) | menstrueller Zyklus ([2]; oral, patients with hypothalamic amenorrhoea) | Gonadotropin-Sekretion [2, 6] | Ovulation, Bildung eines Corpus luteum [2, 6] | Ablauf des Zyklus [3] | Sekretion der gonadotropen Hormone [3] | Verweildauer im Plasma [4]
1 | C=CCN1CC[C@]23c4c5ccc(O)c4OC2C(=O)CC[C@@]3(O)[C@H]1C5 (some centres unmarked) [Naloxon, 17-Allyl-4,5-epoxy-3,14-dihydroxymorphinan-6-on] | deutliche Zunahme | nicht oder nur in wesentlich geringerem Ausmaß | deutlichen Anstieg |  |  |  |  |  |  |  |  |  |  | 
2 | O=C1CC[C@@]2(O)[C@H]3Cc4ccc(O)c5c4[C@@]2(CCN3CC2CC2)C1O5 (some centres unmarked) [Naltrexon, 17-(Cyclopropylmethyl)-4,5-epoxy-3,14-dihydroxymorphinan-6-on] |  |  |  | Zunahme | Zunahme | Eine von 3 | Sämtliche Patientinnen menstruierten | Zunahme | Normalisierung | Normalisierung | zur Ovulation und zur Bildung eines Corpus luteum | keinen Einfluß | keinen Einfluß | lange Verweildauer im Plasma
